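Compound exposure: 48 hours, 5 concentrations, 96-well plates. GI50 is the concentration that inhibits growth by half.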 Active and inactive are the calls of the source. Rule as the data show it: active = GI50 up to about 1.1 µM and inactive = higher.
Experiments:
Assay in all cases: NCI tumour cell line growth inhibition, 48 h
[1] = test system: BT-549
[2] = test system: CAKI-1
[3] = test system: EKVX
[4] = test system: HCT-15
[5] = test system: HL-60
[6] = test system: KM12
[7] = test system: LOX IMVI
[8] = test system: MDA-MB-231
[9] = test system: NCI/ADR-RES
[10] = test system: OVCAR-4
[11] = test system: RXF 393
[12] = test system: SNB-75
[13] = test system: SW-620
[14] = test system: TK-10
[15] = test system: UACC-62
[16] = test system: UO-31
[17] = test system: CCRF-CEM
[18] = test system: NCI-H522
[19] = test system: SR
[20] = test system: Hs-578T

CC(=O)/C(=C/n1ccc(=O)[nH]c1=S)C(=O)Nc1ccccc1C
GI50 [1]: > 100 µM (inactive)
GI50 [2]: > 100 µM (inactive)
GI50 [3]: > 100 µM (inactive)
GI50 [4]: > 100 µM
GI50 [5]: 82.6 µM (inactive)
GI50 [6]: > 100 µM (inactive)
GI50 [7]: > 100 µM (inactive)
GI50 [8]: > 100 µM (inactive)
GI50 [9]: > 100 µM (inactive)
GI50 [10]: > 100 µM (inactive)
GI50 [11]: > 100 µM (inactive)
GI50 [12]: > 100 µM (inactive)
GI50 [13]: > 100 µM (inactive)
GI50 [14]: > 100 µM (inactive)
GI50 [15]: > 100 µM (inactive)
GI50 [16]: > 100 µM (inactive)

Cc1c/c(=N/NC(=O)c2ccncc2)n2nc(N)sc2n1
GI50 [1]: > 100 µM (inactive)
GI50 [2]: > 100 µM (inactive)
GI50 [17]: > 100 µM (inactive)
GI50 [3]: > 100 µM (inactive)
GI50 [4]: > 100 µM
GI50 [5]: > 100 µM (inactive)
GI50 [6]: > 100 µM (inactive)
GI50 [7]: > 100 µM (inactive)
GI50 [8]: > 100 µM (inactive)
GI50 [18]: > 100 µM (inactive)
GI50 [9]: > 100 µM (inactive)
GI50 [10]: > 100 µM (inactive)
GI50 [11]: > 100 µM (inactive)
GI50 [12]: 40.2 µM (inactive)
GI50 [19]: > 100 µM (inactive)
GI50 [13]: > 100 µM (inactive)
GI50 [15]: > 100 µM (inactive)
GI50 [16]: > 100 µM (inactive)

Cn1c(=O)c2c(nc3n2CC(C(=O)O)N3)n(C)c1=O (stereo not given)
GI50 [1]: > 100 µM (inactive)
GI50 [2]: > 100 µM (inactive)
GI50 [3]: > 100 µM (inactive)
GI50 [4]: > 100 µM
GI50 [5]: > 100 µM (inactive)
GI50 [20]: > 100 µM (inactive)
GI50 [6]: > 100 µM (inactive)
GI50 [7]: > 100 µM (inactive)
GI50 [8]: > 100 µM (inactive)
GI50 [18]: > 100 µM (inactive)
GI50 [9]: > 100 µM (inactive)
GI50 [10]: > 100 µM (inactive)
GI50 [11]: > 100 µM (inactive)
GI50 [12]: > 100 µM (inactive)
GI50 [13]: > 100 µM (inactive)
GI50 [14]: > 100 µM (inactive)
GI50 [15]: > 100 µM (inactive)
GI50 [16]: > 100 µM (inactive)

O=C(Nc1ccccc1F)c1cc2ccc(O)cc2o/c1=N\c1cccc(F)c1
GI50 [1]: 15.3 µM (inactive)
GI50 [2]: 19.5 µM (inactive)
GI50 [17]: 3.31 µM (inactive)
GI50 [3]: 11.1 µM (inactive)
GI50 [4]: 10.2 µM
GI50 [5]: 5.28 µM (inactive)
GI50 [20]: 25.6 µM (inactive)
GI50 [6]: 12.6 µM (inactive)
GI50 [7]: 9.89 µM (inactive)
GI50 [18]: 2.37 µM (inactive)
GI50 [9]: 12.8 µM (inactive)
GI50 [10]: 9.86 µM (inactive)
GI50 [19]: 12.9 µM (inactive)
GI50 [13]: 9.04 µM (inactive)
GI50 [15]: 11.8 µM (inactive)
GI50 [16]: 13 µM (inactive)

C1CSCCCSCCSCCCSC1
GI50 [1]: > 100 µM (inactive)
GI50 [2]: > 100 µM (inactive)
GI50 [3]: > 100 µM (inactive)
GI50 [4]: > 100 µM
GI50 [20]: > 100 µM (inactive)
GI50 [7]: > 100 µM (inactive)
GI50 [8]: > 100 µM (inactive)
GI50 [18]: 67.9 µM (inactive)
GI50 [10]: > 100 µM (inactive)
GI50 [11]: > 100 µM (inactive)
GI50 [12]: > 100 µM (inactive)
GI50 [13]: > 100 µM (inactive)
GI50 [14]: > 100 µM (inactive)
GI50 [15]: > 100 µM (inactive)
GI50 [16]: > 100 µM (inactive)

CCN(CC)CCNc1nc2ccc([N+](=O)[O-])cc2[n+]([O-])n1
GI50 [1]: 73.8 µM (inactive)
GI50 [2]: 41.9 µM (inactive)
GI50 [17]: 27 µM (inactive)
GI50 [4]: 11.5 µM
GI50 [5]: 3.44 µM (inactive)
GI50 [6]: 26.2 µM (inactive)
GI50 [8]: 15.5 µM (inactive)
GI50 [18]: 28.1 µM (inactive)
GI50 [9]: 24.3 µM (inactive)
GI50 [10]: 13.7 µM (inactive)
GI50 [11]: 46.7 µM (inactive)
GI50 [12]: 29.3 µM (inactive)
GI50 [19]: 18.4 µM (inactive)
GI50 [13]: 16.2 µM (inactive)
GI50 [14]: 43.1 µM (inactive)
GI50 [15]: 16.6 µM (inactive)
GI50 [16]: 37.6 µM (inactive)

N=C(N)NCCCC(NC(=O)c1c2ccccc2nc2ccccc12)C(=O)O (stereo not given)
GI50 [1]: > 100 µM (inactive)
GI50 [2]: > 100 µM (inactive)
GI50 [17]: > 100 µM (inactive)
GI50 [3]: > 100 µM (inactive)
GI50 [4]: > 100 µM
GI50 [6]: > 100 µM (inactive)
GI50 [7]: > 100 µM (inactive)
GI50 [8]: > 100 µM (inactive)
GI50 [18]: > 100 µM (inactive)
GI50 [9]: > 100 µM (inactive)
GI50 [10]: > 100 µM (inactive)
GI50 [12]: > 100 µM (inactive)
GI50 [19]: > 100 µM (inactive)
GI50 [13]: > 100 µM (inactive)
GI50 [14]: > 100 µM (inactive)
GI50 [15]: > 100 µM (inactive)
GI50 [16]: > 100 µM (inactive)

NC1=C(N2CCCCC2)C(=O)NC2=N/C(=C\c3ccccc3)C(=O)N21
GI50 [2]: > 100 µM (inactive)
GI50 [17]: > 100 µM (inactive)
GI50 [3]: 92.9 µM (inactive)
GI50 [4]: > 100 µM
GI50 [5]: 32 µM (inactive)
GI50 [20]: > 100 µM (inactive)
GI50 [6]: > 100 µM (inactive)
GI50 [7]: > 100 µM (inactive)
GI50 [8]: > 100 µM (inactive)
GI50 [18]: 63.2 µM (inactive)
GI50 [9]: > 100 µM (inactive)
GI50 [10]: 86.3 µM (inactive)
GI50 [11]: > 100 µM (inactive)
GI50 [12]: > 100 µM (inactive)
GI50 [19]: 43.7 µM (inactive)
GI50 [13]: > 100 µM (inactive)
GI50 [14]: > 100 µM (inactive)
GI50 [16]: > 100 µM (inactive)
